Assay results published in US20080317674A1, “Method and Reagent for Measuring Nitroreductase Enzyme Activity” (priority 2004, published 2008).

Assays:
[1] = target: NTR enzyme (Escherichia coli, UniProt P38489); experiment: Shift in absorption maximum after action of NTR upon a substrate; type: biochemical
Protocol: Compound (8) in DMSO (1 mMol) (4 μl ) was diluted into PBS buffer (0.01M) (1.76 ml). The UV/Vis spectrum of the solution was measured. The substrate has an absorbance maximum at 682 nm AU=0.22. To the solution was added NADH (0.01M in PBS) (200 μl) and NTR enzyme (446 ng/ml, 37 μl) the mixture was leave to stand at room temperature for 30 mins. After this time, the absorbance spectrum was re-measured. A new absorbance maximum at 621 nm, AU=0.17 is observed.

[2] = target: T1, nitroreductase (Escherichia coli, UniProt P38489); experiment: Live cell NTR assays, signal retention after fixation of cells; type: cell-based; conditions: live cell NTR assay, cells fixed
T1 construct: expressed in transfected cells
Text: Further examples of the utility of nitro-substituted squaraine dyes (Compounds (2), (3) and (4)) as nitroreductase substrates are shown in live cell NTR assays, FIG. 5.

[3] = target: T2, nitroreductase (NTR) (Escherichia coli, UniProt P38489); experiment: Nitroreductase gene reporter assay (adenoviral NF-κB NTR reporter, HeLa cells); type: cell-based; conditions: control sample cells containing the reporter, no agonist, vs mock transduced cells
T2 construct: expressed in transfected cells
Protocol: A reporter construct containing the NF-κB response element upstream of the NTR gene was constructed in pDC511 (Admax™). The reporter was packaged with AdS genomic DNA in helper cells, HEK293, and replication incompetent Adenovirus rescued.
HeLa cells were subcultured for twenty-four hours prior to viral transduction and incubated overnight at 37° C. in a humidified atmosphere of 5% CO2 in Dulbecco's Modified Eagles medium containing 10% foetal calf serum +2 mM L-glutamine. After the overnight incubation, the cells were detached from each flask with trypsin, pooled to produce a suspension of cells and the cell concentration determined. The HeLa cell suspension was mixed with virus at a predetermined multiplicity of infection (MOI) in a sufficient minimal volume of complete medium to cover the base of a tissue culture flask; typically 15 ml for 10^6 cells in a T75 cm^2 Costar flask. The cell/virus suspension was returned to the incubator and left overnight at 37° C. in a humidified atmosphere of 5% CO2. […] The cells were detached with trypsin and pooled to produce a suspension of transduced cells; the concentration of the cell suspension was determined and adjusted to 5.0×10^4 cells per ml. […] The fluorescence signal was monitored over time by means of a Tecan “Ultra” fluorimeter. All substrates were measured under identical conditions to avoid instrument artefacts. […]

Sequence of NTR enzyme (P38489 whole entry): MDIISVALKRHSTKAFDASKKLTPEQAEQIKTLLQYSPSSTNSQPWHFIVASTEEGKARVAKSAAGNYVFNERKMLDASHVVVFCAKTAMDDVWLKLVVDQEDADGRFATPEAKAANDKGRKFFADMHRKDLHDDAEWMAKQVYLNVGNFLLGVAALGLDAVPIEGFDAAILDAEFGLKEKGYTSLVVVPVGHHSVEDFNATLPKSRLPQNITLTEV
T1 sequence (P38489 whole entry): as above
T2 sequence (P38489 whole entry): as above

## C[n+]1c(C=C2C(=O)C(C=C3N(CCCCS(=O)(=O)O)c4ccc(S(=O)(=O)O)cc4C3(C)C)=C2[O-])ccc2cc([N+](=O)[O-])ccc21 [Compound (8), 2-((3,3-dimethyl-5-sulfo-1-(4-sulfobutyl)-1,3-dihydro-2H-indol-2-ylidene)methyl)-4-((1-methyl-6-nitroquinolinium-2-yl)methylene)-3-oxocyclobut-1-en-1-olate]
[1]; NADH and NTR enzyme added, room temperature, 30 mins
  new absorbance maximum after action of NTR: 621 nm
[1]; at 621 nm, NADH and NTR enzyme added, room temperature, 30 mins
  absorbance at new maximum after action of NTR: 0.17 AU
[1]; before NTR, PBS buffer 0.01M
  absorbance maximum of substrate: 682 nm
[1]; before NTR, at 682 nm, PBS buffer
  absorbance at maximum of substrate: 0.22 AU

## CC[n+]1c(/C=C2/C(=O)C(/C=C3\N(CCOCCOC)c4ccccc4C3(C)C)=C2[O-])sc2cc([N+](=O)[O-])ccc21 [Compound (4), 2-(3-ethyl-6-nitro-2-benzothiazolinylidenemethyl)-4-(1-(2-(2-methoxyethoxy)ethyl)-3,3-dimethyl-2-indolinylidenemethyl)cyclobutenediylium-1,3-diolate]
[2]
  signal lost post-fixation: ~50%

## CN1/C(=C\C2=C([O-])C(=C\C3=[N+](Cc4cc([N+](=O)[O-])cc([N+](=O)[O-])c4)c4ccccc4C3(C)C)/C2=O)C(C)(C)c2ccccc21 [Compound (1), 2-(1-methyl-3,3-dimethyl-2-indolinylidenemethyl)-4-(1-(3,5-dinitrobenzyl)-3,3-dimethyl-2-indolinylidenemethyl)cyclobutenediylium-1,3-diolate]
[3]
  detection of basal transcriptional activity: not sensitive enough to detect this low level activity
